# In publication PMC6546875, “Efficacy of Antimicrobial Peptide DP7, Designed by Machine-Learning Method, Against Methicillin-Resistant Staphylococcus aureus” (Frontiers in Microbiology, 2019):
# “And” between values parts separate entries of the source, which are not always exact repeats. Equal entries are not always repeated. Structures can show the parent of a compound that is named as a salt. Where two headings read alike, the source gives them in different places. Marks after values point to notes of the source that are not given here. No end group written: not given here.
# What was measured:
# S. aureus ATCC 25923 [1] = assay: microbe, parasite or virus in culture; settings: Staphylococcus aureus, ATCC25923, 22 h, read-out: MIC for ATCC 25923
# S. aureus DP7-R = assay type: cell-based, Staphylococcus aureus; settings: change from 1× MIC (ATCC 25923) to n× MIC (DP7-R)
# Protocol: Subsequently, the bacterial samples were counted at different time points (0, 1, 2, 4, 6, 8, 18, and 24 h).
# For every 48 h, we transferred 2% of each culture to new flasks containing fresh medium with a twofold higher DP7 concentration. […] Aliquots from each population were stored in 20% glycerol at -80°C.
# S. aureus = assay: In vitro time-killing assay; assay type: cell-based, Staphylococcus aureus; settings: Figure 1; S. aureus ATCC 25923 and ATCC 33591
# MRSA strain ATCC 33591 = assay: Murine model of MRSA blood stream infection; assay type: in vivo, C57 female mice; settings: 10 mg/kg i.v., 72 h, vs PBS-treated mice, n = 5
# Protocol: A well-characterized murine model of blood stream infection was employed to study the pharmacodynamics profiles of DP7 and compare them with those of vancomycin. Briefly, C57 female mice (body weight 17 g ± 1 g), purchased from Hua Fu Kang Biological Technology Co., Ltd (Beijing, China), were intravenously infected with 1 × 10^8 CFU/100 μL of MRSA strain ATCC 33591 in the logarithmic growth phase (recovery on defibrinated sheep blood agar, Oxoid, United Kingdom). One hour after infection, the mice were treated with various doses of DP7 (0.5, 1, and 2 mg/kg), while the mice in the control group were injected with the same volume of saline. Vancomycin at 10 mg/kg was used as the positive control. Survival and weight changes were observed every 24 h for 1 week. At 24 and 72 h, organs, including the heart, liver, spleen, lung, kidney, and blood were collected and the bacterial load was counted for each murine. At 72 h, the liver, spleen, lungs, and kidneys were fixed with 4% paraformaldehyde for 1 week, sectioned at 4 μm after processing for paraffin embedding, and then stained with hematoxylin and eosin (H&E). All animal procedures were approved and controlled by the Institutional Animal Care and Treatment Committee of Sichuan University and conducted according to the Animal Care and Use Guidelines of Sichuan University.
# S. aureus ATCC 33591 [2] = settings: superscript b; ref Shen et al., 2012; cited from earlier work
# S. aureus ATCC 25923 [3] = settings: superscript b; ref Shen et al., 2012; cited from earlier work
# From the text: Table 1 MIC of various AMPs against S. aureus. | column: MIC for ATCC 25923 (mg/L) || Here, the antimicrobial peptide (AMP) DP7, a short 12 amino acid AMP with broad-spectrum antibacterial activities, was chosen to analyze its potential mechanisms for killing S. aureus.
# S. aureus ATCC 33591 [4] = assay type: cell-based, Staphylococcus aureus; settings: ATCC 33591, 22 h
# Protocol: (§1) The susceptibility testing methods were performed as previously described ([Wiegand et al., 2008]). […] The minimum bactericidal concentration (MBC) endpoint is the lowest concentration of antibacterial agent that kills > 99.9% of the initial bacterial population where no visible growth of bacteria was observed on nutrient agar plates. […] Subsequently, the bacterial samples were counted at different time points (0, 1, 2, 4, 6, 8, 18, and 24 h).
# S. aureus ATCC 25923 [5] = tested on: S. aureus ATCC 25923
# P. aeruginosa (PAO1) = assay type: cell-based, Pseudomonas aeruginosa; settings: PAO1, 22 h
# Protocol: as §1
# E. coli (ATCC 25922) = assay type: cell-based, Escherichia coli; settings: ATCC 25922, 22 h
# Protocol: as §1
compound,measurement,setting,value
CC[C@H]1OC(=O)[C@H](C)[C@@H](O[C@H]2C[C@@](C)(OC)[C@@H](O)[C@H](C)O2)[C@H](C)[C@@H](O[C@@H]2O[C@H](C)C[C@H](N(C)C)[C@H]2O)[C@](C)(O)C[C@@H](C)CN(C)[C@H](C)[C@@H](O)[C@]1(C)O [azithromycin],MIC,S. aureus ATCC 25923 [1],0.125 µg/mL
same,MIC for DP7-R as multiple of the MIC for ATCC 25923,S. aureus DP7-R,1 × MIC
CNC(C)C1CCC(N)C(OC2C(N)CC(N)C(OC3OCC(C)(O)C(NC)C3O)C2O)O1 (stereo not shown) [gentamicin],MIC use here (time-killing curves),S. aureus,0.125 µg/mL
same,MIC,S. aureus ATCC 25923 [1],0.0625 µg/mL
same,MIC for DP7-R as multiple of the MIC for ATCC 25923,S. aureus DP7-R,4 × MIC
COc1c(N2C[C@@H]3CCCN[C@@H]3C2)c(F)cc2c(=O)c(C(=O)O)cn(C3CC3)c12 [moxifloxacin hydrochloride],MIC,S. aureus ATCC 25923 [1],0.125 µg/mL
same,MIC for DP7-R as multiple of the MIC for ATCC 25923,S. aureus DP7-R,1 × MIC
"CCn1cc(C(=O)O)c(=O)c2cc(F)c(N3CCNCC3)cc21 [noroxin, norfloxacin]",MIC use here (time-killing curves),S. aureus,1 µg/mL
same,MIC,S. aureus ATCC 25923 [1],1 µg/mL
same,MIC for DP7-R as multiple of the MIC for ATCC 25923,S. aureus DP7-R,2 × MIC
CC1COc2c(N3CCN(C)CC3)c(F)cc3c(=O)c(C(=O)O)cn1c23 (stereo not shown) [ofloxacin],MIC,S. aureus ATCC 25923 [1],0.25 µg/mL
same,MIC for DP7-R as multiple of the MIC for ATCC 25923,S. aureus DP7-R,2 × MIC
CO[C@H]1/C=C/O[C@@]2(C)Oc3c(C)c(O)c4c(O)c(c(/C=N/N5CCN(C)CC5)c(O)c4c3C2=O)NC(=O)/C(C)=C\C=C\[C@H](C)[C@H](O)[C@@H](C)[C@@H](O)[C@@H](C)[C@H](OC(C)=O)[C@@H]1C [rifampicin],MIC for DP7-R as multiple of the MIC for ATCC 25923,S. aureus DP7-R,1 × MIC
CN[C@H](CC(C)C)C(=O)N[C@H]1C(=O)N[C@@H](CC(N)=O)C(=O)N[C@H]2C(=O)N[C@H]3C(=O)N[C@H](C(=O)N[C@H](C(=O)O)c4cc(O)cc(O)c4-c4cc3ccc4O)[C@H](O)c3ccc(c(Cl)c3)Oc3cc2cc(c3O[C@@H]2O[C@H](CO)[C@@H](O)[C@H](O)[C@H]2O[C@H]2C[C@](C)(N)[C@H](O)[C@H](C)O2)Oc2ccc(cc2Cl)[C@H]1O [vancomycin],"bacterial load in heart, liver, spleen, lung, kidney and blood",MRSA strain ATCC 33591,statistically significant reductions
same,MIC use here (time-killing curves),S. aureus,0.25 µg/mL
same,MIC,S. aureus ATCC 25923 [1],0.25 µg/mL
same,MIC for DP7-R as multiple of the MIC for ATCC 25923,S. aureus DP7-R,1 × MIC
"LLGDFFRKSKEKIGKEFKRI VQRIKDFLRNLVPRTES [LL-37, antimicrobial peptide, 37 amino acids]",MIC for ATCC 33591,S. aureus ATCC 33591 [2],28^b mg/L
same,MIC for ATCC 25923,S. aureus ATCC 25923 [3],14 mg/L and 14^b mg/L
RLARIVVIRVAR [Bac2A],MIC for ATCC 33591,S. aureus ATCC 33591 [4],43.7^a mg/L
VQLRIRVAVIRA [HH2],MIC for ATCC 33591,S. aureus ATCC 33591 [4],64^a mg/L
same,MIC for ATCC 25923,"S. aureus ATCC 25923 [5]; ATCC 25923, 22 h",64 mg/L
VQLRIRVCVIRK [DP8],MIC for ATCC 25923,"S. aureus ATCC 25923 [5]; ATCC 25923, 22 h",16 mg/L
same,MIC for DP7-R as multiple of the MIC for ATCC 25923,S. aureus DP7-R,4 × MIC
"VQLRIRVCVIRK [DP10, synthesized antimicrobial peptide]",MIC for ATCC 25923,"S. aureus ATCC 25923 [5]; logarithmic growth-phase bacteria, 37°C, 22 h, OD600",64 mg/L
same,MIC for DP7-R as multiple of the MIC for ATCC 25923,S. aureus DP7-R,4 × MIC
VQWRIRVAVIRK [DP7],MBC,P. aeruginosa (PAO1),64 µg/mL
same,MIC,P. aeruginosa (PAO1),16 µg/mL
same,MBC,S. aureus ATCC 33591 [4],64 µg/mL
same,MIC for ATCC 33591,S. aureus ATCC 33591 [4],16^a mg/L
same,MBC,"S. aureus ATCC 25923 [5]; ATCC 25923, 22 h",64 µg/mL
same,MIC for ATCC 25923,"S. aureus ATCC 25923 [5]; ATCC 25923, 22 h",16^a mg/L
same,MBC,E. coli (ATCC 25922),64 µg/mL
same,MIC,E. coli (ATCC 25922),16 µg/mL
